This is an account of results in PubChem BioAssay AID328 (DTP/NCI, 2004).

In this experiment the test system is BDF1 mice, P388 leukemia ip, median survival T/C. Description: NCI In Vivo Anticancer Drug Screen. Data for tumor model P388 Leukemia (intraperitoneal) in B6D2F1 (BDF1) mice. The conditions noted are these: endpoint: median survival time, higher = longer survival. The method, boiled down: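 Mice carrying the transplantable tumour receive compound or vehicle. Survival is followed in each arm, and the treated measure is divided by the vehicle measure.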

The mark [1] stands for this setting: dose: 50.0 mg/kg/injection, schedule: Q01DX009 (ip), vehicle: saline with Tween-80.
[2] abbreviates: dose: 8.0 mg/kg/injection, schedule: Q01DX009 (ip), vehicle: saline with Tween-80.
[3] abbreviates: dose: 50.0 mg/kg/injection, schedule: Q01DX009 (ip), vehicle: Klucel (hydroxypropylcellulose) (HPC).
The mark [4] stands for this setting: dose: 100.0 mg/kg/injection, schedule: Q01DX009 (ip), vehicle: Klucel (hydroxypropylcellulose) (HPC).
Setting [5] is: dose: 100.0 mg/kg/injection, schedule: Q04DX003 (ip), vehicle: Klucel (hydroxypropylcellulose) (HPC).
Setting [6] is: dose: 200.0 mg/kg/injection, schedule: Q04DX003 (ip), vehicle: Klucel (hydroxypropylcellulose) (HPC).
Where [7] appears, read: dose: 6.25 mg/kg/injection, schedule: Q01DX009 (ip), vehicle: Klucel (hydroxypropylcellulose) (HPC).
Where [8] appears, read: dose: 100.0 mg/kg/injection, schedule: Q01DX009 (ip), vehicle: saline with Tween-80.
The mark [9] stands for this setting: dose: 200.0 mg/kg/injection, schedule: Q01DX009 (ip), vehicle: saline with Tween-80.
Setting [10] is: dose: 6.0 mg/kg/injection, schedule: Q01DX009 (ip), vehicle: Klucel (hydroxypropylcellulose) (HPC).
[11] abbreviates: dose: 12.0 mg/kg/injection, schedule: Q01DX009 (ip), vehicle: Klucel (hydroxypropylcellulose) (HPC).
Setting [12] is: dose: 400.0 mg/kg/injection, schedule: Q04DX003 (ip), vehicle: Klucel (hydroxypropylcellulose) (HPC).
Where [13] appears, read: dose: 400.0 mg/kg/injection, schedule: Q01DX009 (ip), vehicle: saline with Tween-80.

SMILES strings stand for the structures. “And” between values parts separate entries of the source, which are not always exact repeats. Equal values may be shown once. Toxic doses and inconclusive results are not listed.

For `CN(C)Cc1cccc(N)c1`, the T/C reads like this: (dose: 0.25 mg/kg/injection, schedule: Q01DX009 (ip), vehicle: water) 120 % of control; (dose: 0.5 mg/kg/injection, schedule: Q01DX009 (ip), vehicle: water) 111 % of control; (dose: 1.0 mg/kg/injection, schedule: Q01DX009 (ip), vehicle: water) 113 % of control; (dose: 2.0 mg/kg/injection, schedule: Q01DX009 (ip), vehicle: water) 120 % of control; (dose: 4.0 mg/kg/injection, schedule: Q01DX009 (ip), vehicle: water) 92 % of control; (dose: 12.5 mg/kg/injection, schedule: Q04DX003 (ip), vehicle: water) 100 % of control. For the same molecule, the T/C (dose: 25.0 mg/kg/injection, schedule: Q04DX003 (ip), vehicle: water) is 100 % of control; the T/C (dose: 50.0 mg/kg/injection, schedule: Q04DX003 (ip), vehicle: water) was 91 % of control; the T/C (dose: 100.0 mg/kg/injection, schedule: Q04DX003 (ip), vehicle: water) is 97 % of control.
With `CC(C)NC(=O)c1ccccc1S(=O)(=O)c1ccccc1C(=O)NC(C)C`, the T/C was 108 % of control (dose: 100.0 mg/kg/injection, schedule: Q01DX001 (ip), vehicle: saline with Tween-80); 100 % of control (dose: 200.0 mg/kg/injection, schedule: Q01DX001 (ip), vehicle: saline with Tween-80); 100 % of control (dose: 400.0 mg/kg/injection, schedule: Q01DX001 (ip), vehicle: saline with Tween-80).
Regarding `O=[N+]([O-])c1ccc(Sc2ccc(Cl)cc2)c2nonc12`, the T/C under setting [1] was 92 % of control.
On to `COc1cc(C(=O)OC2CC34CCNC35CC(OC5(OC)C2O)c2cc3c(cc24)OCO3)ccc1O` (stereo unspecified), for which the T/C is, setting by setting: (dose: 0.5 mg/kg/injection, schedule: Q01DX010 (ip), vehicle: saline) 100 % of control; (dose: 1.0 mg/kg/injection, schedule: Q01DX010 (ip), vehicle: carboxymethylcellulose (CMC)) 86 % of control; (dose: 1.0 mg/kg/injection, schedule: Q01DX010 (ip), vehicle: saline) 118 % of control; (dose: 2.0 mg/kg/injection, schedule: Q01DX010 (ip), vehicle: saline) 95 % of control.
In the case of `CCC1CN1P(=O)(Oc1ccc2ccccc2c1)N1CC1CC` (stereo unspecified), the T/C is, setting by setting: (dose: 200.0 mg/kg/injection, schedule: Q04DX003 (ip), vehicle: saline with Tween-80) 245 % of control; (dose: 400.0 mg/kg/injection, schedule: Q04DX003 (ip), vehicle: saline with Tween-80) 86 % of control.
`COC(=O)C(CO)NC(=O)OCc1ccc(OC)cc1` (stereo unspecified): the T/C (dose: 12.5 mg/kg/injection, schedule: Q01DX009 (ip), vehicle: distilled water + Tween-80) is 87 % of control; the T/C (dose: 25.0 mg/kg/injection, schedule: Q01DX009 (ip), vehicle: distilled water + Tween-80) is 89 % of control; the T/C (dose: 50.0 mg/kg/injection, schedule: Q01DX009 (ip), vehicle: distilled water + Tween-80) is 104 % of control; the T/C (dose: 100.0 mg/kg/injection, schedule: Q01DX009 (ip), vehicle: distilled water + Tween-80) is 114 % of control.
For `N#CC1(C#N)C(c2ccccc2)C1(C#N)C#N`, the T/C (dose: 2.0 mg/kg/injection, schedule: Q01DX009 (ip), vehicle: saline with Tween-80) is 120 % of control; the T/C (dose: 2.66 mg/kg/injection, schedule: Q01DX009 (ip), vehicle: saline with Tween-80) is 122 % of control; the T/C (dose: 2.66 mg/kg/injection, schedule: Q01DX009 (ip), vehicle: saline) was 109 % of control and 120 % of control; the T/C (dose: 4.0 mg/kg/injection, schedule: Q01DX009 (ip), vehicle: saline) was 108 % of control; the T/C (dose: 6.0 mg/kg/injection, schedule: Q01DX009 (ip), vehicle: saline) is 118 % of control; the T/C (dose: 6.25 mg/kg/injection, schedule: Q01DX009 (ip), vehicle: saline with Tween-80) was 115 % of control. Also, the T/C under setting [2] was 120 % of control.
With `C#CCOC(=O)NC1CCCCC1`, the T/C is 100 % of control under setting [3]; 100 % of control (dose: 50.0 mg/kg/injection, schedule: Q04DX003 (ip), vehicle: Klucel (hydroxypropylcellulose) (HPC)); 100 % of control under setting [4]; 95 % of control under setting [5]; 100 % of control (dose: 200.0 mg/kg/injection, schedule: Q01DX009 (ip), vehicle: Klucel (hydroxypropylcellulose) (HPC)); 109 % of control under setting [6].
On to `[CH3][Hg][O]C(C)=O`, for which the T/C reads like this: (dose: 3.12 mg/kg/injection, schedule: Q01DX009 (ip), vehicle: Klucel (hydroxypropylcellulose) (HPC)) 107 % of control; under setting [7], 113 % of control.
In the case of `CC(O)CN(CCN(CC(C)O)CC(C)O)CC(C)O.[Cl-].[Co+2]` (stereo unspecified), the T/C (dose: 100.0 mg/kg/injection, schedule: Q01DX009 (ip), vehicle: saline) is 110 % of control.
Take `Cn1c(-c2ccccc2)nc2ccccc2c1=O`: the T/C runs as follows: under setting [1], 90 % of control; under setting [8], 97 % of control; under setting [9], 101 % of control.
As to `CC(=O)C(C(C)=O)c1ccccc1.CC(=O)C(C(C)=O)c1ccccc1.[Ni]`, the T/C runs as follows: (dose: 3.0 mg/kg/injection, schedule: Q01DX009 (ip), vehicle: Klucel (hydroxypropylcellulose) (HPC)) 110 % of control; under setting [10], 100 % of control; (dose: 6.0 mg/kg/injection, schedule: Q04DX003 (ip), vehicle: other) 100 % of control; under setting [11], 100 % of control; (dose: 12.0 mg/kg/injection, schedule: Q04DX003 (ip), vehicle: other) 95 % of control; (dose: 25.0 mg/kg/injection, schedule: Q04DX003 (ip), vehicle: other) 100 % of control.
Take `COC(=O)c1cc(Cl)c(C(=O)OC)cc1Cl`: the T/C is 104 % of control under setting [5], 96 % of control under setting [6] and 100 % of control under setting [12].
For the molecule `NC(=S)N/N=C\c1ncnc2ccccc12`, the T/C is 150 % of control under setting [2]; 150 % of control (dose: 12.0 mg/kg/injection, schedule: Q01DX009 (ip), vehicle: saline with Tween-80); 150 % of control (dose: 18.0 mg/kg/injection, schedule: Q01DX009 (ip), vehicle: saline with Tween-80).
As to `ClC(Cl)(Cl)c1ccc(C(Cl)(Cl)Cl)cc1`, the T/C by setting is: under setting [10], 100 % of control; under setting [7], 90 % of control; under setting [11], 104 % of control; (dose: 12.5 mg/kg/injection, schedule: Q01DX009 (ip), vehicle: Klucel (hydroxypropylcellulose) (HPC)) 90 % of control; (dose: 12.5 mg/kg/injection, schedule: Q04DX003 (ip), vehicle: Klucel (hydroxypropylcellulose) (HPC)) 105 % of control; (dose: 22.0 mg/kg/injection, schedule: Q04DX003 (ip), vehicle: Klucel (hydroxypropylcellulose) (HPC)) 96 % of control and 118 % of control. For the same molecule, the T/C runs as follows: (dose: 25.0 mg/kg/injection, schedule: Q01DX009 (ip), vehicle: Klucel (hydroxypropylcellulose) (HPC)) 104 % of control; (dose: 25.0 mg/kg/injection, schedule: Q04DX003 (ip), vehicle: Klucel (hydroxypropylcellulose) (HPC)) 120 % of control; (dose: 33.0 mg/kg/injection, schedule: Q04DX003 (ip), vehicle: Klucel (hydroxypropylcellulose) (HPC)) 119 % of control and 122 % of control; under setting [3], 90 % of control and 100 % of control; (dose: 75.0 mg/kg/injection, schedule: Q04DX003 (ip), vehicle: Klucel (hydroxypropylcellulose) (HPC)) 100 % of control; under setting [4], 100 % of control. Besides, the T/C is 109 % of control (dose: 150.0 mg/kg/injection, schedule: Q04DX003 (ip), vehicle: Klucel (hydroxypropylcellulose) (HPC)); 100 % of control (dose: 250.0 mg/kg/injection, schedule: Q04DX003 (ip), vehicle: Klucel (hydroxypropylcellulose) (HPC)); 104 % of control under setting [12].
Consider `Cc1occc(=O)c1O`, for which the T/C is, setting by setting: under setting [1], 88 % of control; under setting [8], 117 % of control; under setting [9], 90 % of control; under setting [13], 106 % of control.
With `C[C@]12CCC(=O)C=C1CC[C@@H]1[C@@H]2[C@@H](O)C[C@@]2(C)[C@H]1CC[C@]2(O)C(=O)COC(=O)COCC(=O)O`, the T/C is 109 % of control under setting [8], 109 % of control under setting [9] and 109 % of control under setting [13].
